Source: patent publication US20080103191A1, “ENTACAPONE-DERIVATIVES” (priority 2006, published 2008)
Converted amounts (≈) assume the structure as drawn. Where two headings read alike, the source gives them in different places.

Assays:
[1] = Chemical hydrolysis stability at pH 1 and pH 7.4 (HPLC); assay type: physicochemical; details: 37° C., over 12 h
Procedure: The stability of compounds of the present invention is tested at pH 1 and at pH 7.4. The testing is carried out by the following HPLC method:
Chemical hydrolysis rates t1/2 [h] of selected compounds of formula I are determined in 0.1 N HCl (pH 1) and PBS buffer (pH 7.4) solution. Solutions are prepared by dissolving an appropriate amount of compound in 0.1 N HCl and PBS buffer solution. Samples were withdrawn at designated time intervals and analysed for remaining prodrug by HPLC at 37° C. over 12 h.
Reversed phase gradient HPLC method, column YMC Pro C8, 50 mm×4.0 mm, 3 μm, Eluent A: Water:trifluoroacetic acid (100:0.5 (v/v)), Eluent B: Acetonitrile:trifluoroacetic:acid (100:0.5 (v/v)). Column temperature 30° C., Flow rate 3.0 mL/min, Detection wavelength: 220 nm
For evaluation, the peak area of the respective compound from the first injection is defined as 100% relative concentration. The peak areas of all other subsequent injections are calculated in percentage relating to this standard. (relative concentration in %). The relative concentrations are plotted in a logarithmic scale (ln) against the injection times. Based on the assumption of a first order kinetic, the rate constant and half life times (t1/2 [h]) can be calculated.

[2] = Permeability in Caco-2 cells, apical to basolateral; assay type: in vitro ADME; parameters: dose or concentration left out as unconfirmed; details: human; 21d Caco-2 monolayer, apical pH 6.5 to basolateral pH 7.4, 60 minutes
Description: The human adenocarcinoma cell line Caco-2 is used as an in vitro system to predict oral absorption. These cells serve as a model of small bowel tissue and permeation through these cells is a predictor for gastro-intestinal absorption. Further to being a model for oral absorption, permeability in Caco-2 cells may be predictive for the blood brain barrier permeability (P. Garberg et al.; Toxicology in vitro 19 (2005); 299-334). […] The permeability in Caco-2 cells has been tested by the following method:
The permeability of selected compounds of formula I across Caco-2 (21d Caco-2-culture) monolayer in the apical to basolateral direction is investigated. Control substances were ^3H-propranolol and ^3H-mannitol.
The nominal concentration of the test items is […]. The pH value is set to 6.5 for the apical transport medium and to 7.4 for the basolateral medium. Samples are obtained following 60 minutes (120 minutes for control samples) incubation from the basolateral receiver chamber. At sampling time approximately 600 μL of each well are transferred into an eppendorf vial and stored between −12° and −30° C. until HPLC or LC-MS/MS analysis. The control substances are quantified by liquid scintillation.

[3] = Log D (pH 7.4) by isocratic HPLC; assay type: physicochemical; details: YMC Pro C18 column, phosphate buffer pH 7.4/acetonitrile 45/55
Procedure: LogD is an indicator for absorption and lipophilicity for ionized compounds under defined pH conditions and is measured by applying an isocratic HPLC Method at pH 7.4.
The log D has been tested at pH 7.4. The testing has been carried out by the following method: Isocratic HPLC method: Column YMC Pro C18, 150 mm×4.0 mm, 3 μm, Eluent Phosphate buffer pH 7.4/acetonitrile (45/55, (v/v)), Runtime 15-60 min, Flow rate 1.2 ml/min, Detection wavelength: 220 nm

[4] = Solubility in 0.1 N HCl, PBS buffer, FaSSIF and FeSSIF; assay type: physicochemical; details: thermodynamic from solid
Procedure: For testing solubility, saturated solutions of selected compounds of formula I are prepared in four different systems and compared to the solubility of entacapone. The solubility is tested in 0.1 N HCl (pH 1), PBS buffer (pH 7.4) and in two simulated gastric fluids, FaSSIF at pH 6.5 (for fasting state) and FeSSIF at pH 5.0 (for fed state) at ambient temperature. The content of the FaSSIF simulated gastric fluid is as follows:
The solubility testing is carried out by the following method: An excess amount of each compound is added to a 0.1 N HCl, PBS buffer, FeSSIF and FaSSIF. The suspensions are shaken for 10 min. After centrifugation the concentration is determined by HPLC. Reversed phase gradient HPLC method, column YMC Pro C8, 50 mm×4.0 mm, 3 μm, Eluent A: Water:trifluoroacetic acid (100:0.5 (v/v)), Eluent B: Acetonitrile:trifluoroacetic:acid (100:0.5 (v/v)). Column temperature 30° C., Flow rate 3.0 mL/min, Detection wavelength: 220 nm

Plasma stability ex vivo = assay type: in vitro ADME; details: human plasma, 37° C., read-out: t1/2 plasma
Procedure: Plasma stability is determined in human and rat plasma ex vivo. For the determination of the plasma stability of the compounds of formula I, the test compounds were incubated with human plasma (c=5 μg/mL) at 37° C. for certain time intervals up to 60, resp. 120 min (depending on the compound). Afterwards the incubations were stopped by equivalent addition of acetonitrile for protein precipitation, and the samples were mixed and centrifuged. The supernatants were adequately diluted and analyzed by HPLC with UV detection at 305 nm.
The degradation of the compounds of formula I as well as the formation of the active drug entacapone were monitored, and the half-life times of the compounds of formula I were calculated from the obtained peak areas.

[5] = Solubility in Labrasol and TPGS/PG formulations; assay type: physicochemical
Procedure: Selected lipophilic carbonate compounds of formula I with promising Caco-2 permeabilities are formulated with different lipids/lipophilic excipients and/or micelles forming compounds in order to increase their solubilities. The following formulations are prepared by mixing the ingredients mentioned below: • i) Formulations comprising solubilizers in the form of lipides/lipophilic excipients: • ia) Formulation comprising Labrasol® and the selected compounds of Formula I • Labrasol®: • Caprylocaproyl macrogol-8-glyceride (CAS No. 85536-07-8 and 84963-88-2). This is a mixture of mono-, di- and triesters of glycerol and of PEG 400 with medium-chain fatty acids (C8-C10) which is marketed, for example, by Gattefossé under the mark Labrasol®; Labrasol® has an HLB value (hydrophil-lipophil-balance, Griffin, W. C.: Classification of surface active agents by HLB, J. Soc. Cosmet. 1, 1949) of 14 and has the following composition by weight:
• ib) Formulation comprising NanoSolve® 5401 (Lipoid GmbH, Germany) and the selected compounds of formula I • ic) Formulation comprising TPGS/PG in a weight ratio of 25% by weight of TPGS to 75% by weight of PG and the selected compounds of formula I. • PG: propylene glycol • TPGS: Vitamin E TPGS NF (d-α-tocopheryl polyethylene glycol 1000 succinate) which is marketed, for example, by Eastman Chemical Co • ii) Formulation comprising a micelles forming agent: • iia) Aqueous formulation comprising 30% by weight of Cremophor® RH 40 (relating to the weight of the aqueous phase) in water and the selected compounds of formula I • Cremophor® RH 40: • Generic names: • Polyoxyl 40 Hydrogenated Castor Oil (USP/NF). • Macrogol-Glycerolhydroxystearat (DAB). • Polyoxyethylenglyceroltrihydroxystearat (DAC). • Cremophor RH 40 is a non-ionic solubilizer and emulsifying agent obtained by reacting 45 moles of ethylene oxide with 1 mole of hydrogenated castor oil. The main constituent of Cremophor RH 40 is glycerol polyethylene glycol oxystearate, which, together with fatty acid glycerol polyglycol esters, forms the hydrophobic part of the product. The hydrophilic part consists of polyethylene glycols and glycerol ethoxylate. Cremophor RH 40 is a white to yellowish thin paste at 20° C. The HLB value lies between 14 and 16. Cremophor RH 40 is marketed by BASF AG.
The solubility of selected compounds of formula I in these formulations is measured and compared to the solubility of the compounds in 0.1N HCl (pH 1.0), PBS buffer (pH 7.4), and two simulated gastric fluids (i.e., FaSSIF (pH 6.5) simulating fasting sate and FeSSIF (pH 5.0) simulating fed state) (see above for details).

[6] = pH 1, 0.1 N HCl, read-out: t1/2 at pH 1 (converted)
[7] = pH 7.4, PBS buffer, read-out: t1/2 at pH 7.4 (converted)
[8] = 0.1 N HCl, pH 1, simulated gastric fluid, ambient temperature, shaken 10 min, read-out: Solubility 0.1N HCl Ph 1.0
[9] = FaSSIF, pH 6.5, fassif, fasting state fluid, ambient temperature, read-out: Solubility FaSSIF Ph 6.5
[10] = FeSSIF, pH 5, fessif, fed state fluid, ambient temperature, read-out: Solubility FeSSIF Ph 5.0
[11] = PBS buffer, pH 7.4, aqueous buffer, ambient temperature, read-out: Solubility PBS Ph 7.4

half-life [1, 6] [h] | half-life [1, 7] [h] | Papp A→B at 60 min [2] [×10⁻⁶ cm/s] | chromatographic logD [3] | solubility at 10 min [4, 8] [µg/mL] | solubility at 10 min [4, 9] [µg/mL] | solubility at 10 min [4, 10] [µg/mL] | solubility at 10 min [4, 11] [µg/mL] | half-life at 5 μg/mL (Plasma stability ex vivo) [h] | solubility at 10 min ([4]; 0.1 N HCl, pH 1, simulated gastric fluid, Table 11, maximum solubility, read-out: Solubility 0.1N HCl pH 1.0) [µg/mL] | solubility at 10 min ([4]; FaSSIF, pH 6.5, fassif, Table 11, read-out: Solubility FaSSIF pH 6.5) [µg/mL] | solubility at 10 min ([4]; FeSSIF, pH 5, fessif, Table 11, read-out: Solubility FeSSIF pH 5.0) [µg/mL] | solubility at 10 min ([4]; PBS buffer, pH 7.4, aqueous buffer, Table 11, read-out: Solubility PBS pH 7.4) [µg/mL] | solubility ([5]; Labrasol, oil or lipid, read-out: Solubility Labrasol ®) [µg/mL] | solubility ([5]; organic solvent or mixture, 25% by weight TPGS, 75% by weight PG, read-out: Solubility TPGS/PG) [µg/mL] | Compound
6.8 | 11.6 | 24 | 1.4 | 20 (≈ 49.3 µM) | 530 (≈ 1310 µM) | 200 (≈ 493 µM) | 530 (≈ 1310 µM) | 0.128 | – | – | – | – | – | – | CCN(CC)C(=O)/C(C#N)=C/c1cc(OC(=O)OCC(C)C)c(O)c([N+](=O)[O-])c1 [Compound 1, Carbonic acid 5-((E)-2-cyano-2-diethylcarbamoyl-vinyl)-2-hydroxy-3-nitro-phenyl ester isobutyl ester]
2.7 | 23.1 | 31 | 1 | 3 (≈ 7.67 µM) | 750 (≈ 1920 µM) | 90 (≈ 230 µM) | 950 (≈ 2430 µM) | 0.223 | – | – | – | – | – | – | CCN(CC)C(=O)/C(C#N)=C/c1cc(OC(=O)OC(C)C)c(O)c([N+](=O)[O-])c1 [Compound 7, Carbonic acid 5-((E)-2-cyano-2-diethylcarbamoyl-vinyl)-2-hydroxy-3-nitro-phenyl ester isopropyl ester]
38.5 | 38.5 | 22.4 | 1.8 | 30 (≈ 71.5 µM) | 840 (≈ 2000 µM) | 190 (≈ 453 µM) | 1330 (≈ 3170 µM) | – | 30 (≈ 71.5 µM) | 840 (≈ 2000 µM) | 1330 (≈ 3170 µM) | 190 (≈ 453 µM) | 22000 (≈ 52500 µM) | 3900 (≈ 9300 µM) | CCC(CC)OC(=O)Oc1cc(/C=C(\C#N)C(=O)N(CC)CC)cc([N+](=O)[O-])c1O [Compound 10, Carbonic acid 5-((E)-2-cyano-2-diethylcarbamoyl-vinyl)-2-hydroxy-3-nito-phenyl ester 1-ethyl-propyl ester]
23.1 | 7.2 | 18 | 1.2 | 10 (≈ 25.6 µM) | 290 (≈ 741 µM) | 200 (≈ 511 µM) | 470 (≈ 1200 µM) | 0.112 | – | – | – | – | – | – | CCCOC(=O)Oc1cc(/C=C(\C#N)C(=O)N(CC)CC)cc([N+](=O)[O-])c1O [Compound 41, Carbonic acid 5-((E)-2-cyano-2-diethylcarbamoyl-vinyl)-2-hydroxy-3-nitro-phenyl ester propyl ester]
< 1 | 19.3 | 45 | 1.8 | < 10 | 1200 (≈ 2780 µM) | 140 (≈ 324 µM) | 810 (≈ 1880 µM) | 0.64 | – | – | – | – | – | – | CCN(CC)C(=O)/C(C#N)=C/c1cc(OC(=O)OC2CCCCC2)c(O)c([N+](=O)[O-])c1 [Compound 51, Carbonic acid 5-((E)-2-cyano-2-diethylcarbamoyl-vinyl)-2-hydroxy-3-nitro-phenyl ester cyclohexyl ester]
12.8 | 4 | 36 | 1.7 | – | 240 (≈ 522 µM) | 40 (≈ 87.1 µM) | 490 (≈ 1070 µM) | 0.47 | – | – | – | – | – | – | CCN(CC)C(=O)/C(C#N)=C/c1cc(OC(=O)OCCc2cccs2)c(O)c([N+](=O)[O-])c1 [Compound 61, Carbonic acid 5-((E)-2-cyano-2-diethylcarbamoyl-vinyl)-2-hydroxy-3-nitro-phenyl ester 2-thiophen-2-yl-ethyl ester]
28.9 | 8.3 | 7.7 | 0.8 | 70 (≈ 186 µM) | 570 (≈ 1510 µM) | 1100 (≈ 2920 µM) | 800 (≈ 2120 µM) | 0.0133 | – | – | – | – | – | – | CCOC(=O)Oc1cc(/C=C(\C#N)C(=O)N(CC)CC)cc([N+](=O)[O-])c1O [Compound 71, Carbonic acid 5-((E)-2-cyano-2-diethylcarbamoyl-vinyl)-2-hydroxy-3-nitro-phenyl ester ethyl ester]
